Experimental data taken from ChEMBL document CHEMBL1909046, “DrugMatrix in vitro pharmacology data”.

Biological target: Beta-2 adrenergic receptor (Homo sapiens, UniProt P07550)
Assay: DRUGMATRIX: Adrenergic beta2 radioligand binding (ligand: [3H] CGP-12177)
Format: cell membranes, CHO, Membrane
Settings: cho; Not Active = under 50% inhibition at 10 µM

Row | Compound | IC50 | Ki
1 | CC1CCC(NC(=O)N(CCCl)N=O)CC1 (configuration not stated) [SEMUSTINE] | Not Active | –
2 | O=C1C[C@@H]2OCC=C3CN4CC[C@]56c7ccccc7N1[C@H]5[C@H]2[C@H]3C[C@H]46 [STRYCHNINE] | Not Active | –
3 | C[N+](C)(C)CCOC(=O)CCC(=O)OCC[N+](C)(C)C.[Cl-].[Cl-] [SUCCINYLCHOLINE CHLORIDE] | Not Active | –
4 | Nc1ccc(S(=O)(=O)NC(=O)c2ccccc2)cc1 [SULFABENZAMIDE] | Not Active | –
5 | CCCCCCCCNC(C)C(O)c1ccc(SC(C)C)cc1 (configuration not stated) [SULOCTIDIL] | Not Active | –
6 | O=c1[nH]c(=O)n(C2CCCO2)cc1F (configuration not stated) [TEGAFUR] | Not Active | –
7 | CC(=N)S [THIOACETAMIDE] | Not Active | –
8 | Cc1ccc(C(=O)c2ccc(CC(=O)O)n2C)cc1 [TOLMETIN] | Not Active | –
9 | CC(=O)OCC(COC(C)=O)OC(C)=O [TRIACETIN] | Not Active | –
10 | CN1CCN(CCCN2c3ccccc3Sc3ccc(C(F)(F)F)cc32)CC1 [TRIFLUOPERAZINE] | Not Active | –
11 | TRANSPLATIN | Not Active | Not Active
12 | ZIRCONIUM(IV) CHLORIDE | Not Active | Not Active

Biological target: T1, B2 bradykinin receptor (Homo sapiens, UniProt P30411); further: in other assays of this panel Not Active means under 50% inhibition at 10 µM
T1 sequence (P30411 whole entry): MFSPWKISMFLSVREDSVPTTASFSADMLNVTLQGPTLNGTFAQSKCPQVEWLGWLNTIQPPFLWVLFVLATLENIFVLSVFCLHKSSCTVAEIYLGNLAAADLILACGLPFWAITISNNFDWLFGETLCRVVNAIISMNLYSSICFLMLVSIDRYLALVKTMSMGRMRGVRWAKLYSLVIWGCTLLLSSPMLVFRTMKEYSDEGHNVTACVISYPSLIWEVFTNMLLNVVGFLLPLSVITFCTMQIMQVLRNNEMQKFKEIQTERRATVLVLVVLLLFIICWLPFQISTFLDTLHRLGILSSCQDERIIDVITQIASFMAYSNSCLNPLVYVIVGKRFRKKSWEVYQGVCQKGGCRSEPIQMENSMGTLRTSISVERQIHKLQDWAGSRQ
Format: cell membranes, Membrane
Settings: chem-1

Row | Compound | IC50 | Ki
13 | CC(C)NC[C@@H](O)COc1cccc2ccccc12 [DEXPROPRANOLOL] | Not Active | –
14 | CC(C)NC[C@H](O)COc1cccc2ccccc12 [LEVOPROPRANOLOL] | Not Active | –
15 | CC1CCC(NC(=O)N(CCCl)N=O)CC1 (configuration not stated) [SEMUSTINE] | Not Active | –
16 | O=C1C[C@@H]2OCC=C3CN4CC[C@]56c7ccccc7N1[C@H]5[C@H]2[C@H]3C[C@H]46 [STRYCHNINE] | Not Active | –
17 | C[N+](C)(C)CCOC(=O)CCC(=O)OCC[N+](C)(C)C.[Cl-].[Cl-] [SUCCINYLCHOLINE CHLORIDE] | Not Active | –
18 | Nc1ccc(S(=O)(=O)NC(=O)c2ccccc2)cc1 [SULFABENZAMIDE] | Not Active | –
19 | CCCCCCCCNC(C)C(O)c1ccc(SC(C)C)cc1 (configuration not stated) [SULOCTIDIL] | Not Active | –
20 | O=c1[nH]c(=O)n(C2CCCO2)cc1F (configuration not stated) [TEGAFUR] | Not Active | –
21 | CC(=N)S [THIOACETAMIDE] | Not Active | –
22 | Cc1ccc(C(=O)c2ccc(CC(=O)O)n2C)cc1 [TOLMETIN] | Not Active | –
23 | CC(=O)OCC(COC(C)=O)OC(C)=O [TRIACETIN] | Not Active | –
24 | CN1CCN(CCCN2c3ccccc3Sc3ccc(C(F)(F)F)cc32)CC1 [TRIFLUOPERAZINE] | Not Active | –
25 | TRANSPLATIN | Not Active | Not Active
26 | ZIRCONIUM(IV) CHLORIDE | Not Active | Not Active

Biological target: T2, Progesterone receptor (Bos taurus, UniProt Q690N0)
T2 sequence (Q690N0 whole entry): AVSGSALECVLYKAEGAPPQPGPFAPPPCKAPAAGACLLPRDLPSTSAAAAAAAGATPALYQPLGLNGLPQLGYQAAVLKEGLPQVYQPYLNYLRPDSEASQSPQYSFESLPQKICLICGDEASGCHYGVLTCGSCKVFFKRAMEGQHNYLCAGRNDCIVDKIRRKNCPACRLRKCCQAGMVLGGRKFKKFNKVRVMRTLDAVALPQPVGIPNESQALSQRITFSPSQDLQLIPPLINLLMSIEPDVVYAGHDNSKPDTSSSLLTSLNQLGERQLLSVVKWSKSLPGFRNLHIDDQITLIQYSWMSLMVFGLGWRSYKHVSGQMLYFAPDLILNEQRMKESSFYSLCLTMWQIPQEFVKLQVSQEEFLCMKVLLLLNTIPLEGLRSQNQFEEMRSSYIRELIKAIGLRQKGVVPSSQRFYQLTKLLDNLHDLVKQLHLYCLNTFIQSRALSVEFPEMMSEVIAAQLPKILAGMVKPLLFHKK
Assay: DRUGMATRIX: Progesterone radioligand binding (ligand: [3H] R-5020)
Format: tissue-based, Uterus
Settings: Not Active = under 50% inhibition at 10 µM

Row | Compound | IC50 | Ki
27 | CC(C)NC[C@@H](O)COc1cccc2ccccc12 [DEXPROPRANOLOL] | Not Active | –
28 | CC(C)NC[C@H](O)COc1cccc2ccccc12 [LEVOPROPRANOLOL] | Not Active | –
29 | CC1CCC(NC(=O)N(CCCl)N=O)CC1 (configuration not stated) [SEMUSTINE] | Not Active | –
30 | O=C1C[C@@H]2OCC=C3CN4CC[C@]56c7ccccc7N1[C@H]5[C@H]2[C@H]3C[C@H]46 [STRYCHNINE] | Not Active | –
31 | C[N+](C)(C)CCOC(=O)CCC(=O)OCC[N+](C)(C)C.[Cl-].[Cl-] [SUCCINYLCHOLINE CHLORIDE] | Not Active | –
32 | Nc1ccc(S(=O)(=O)NC(=O)c2ccccc2)cc1 [SULFABENZAMIDE] | Not Active | –
33 | CCCCCCCCNC(C)C(O)c1ccc(SC(C)C)cc1 (configuration not stated) [SULOCTIDIL] | Not Active | –
34 | O=c1[nH]c(=O)n(C2CCCO2)cc1F (configuration not stated) [TEGAFUR] | Not Active | –
35 | CC(=N)S [THIOACETAMIDE] | Not Active | –
36 | Cc1ccc(C(=O)c2ccc(CC(=O)O)n2C)cc1 [TOLMETIN] | Not Active | –
37 | CC(=O)OCC(COC(C)=O)OC(C)=O [TRIACETIN] | Not Active | –
38 | CN1CCN(CCCN2c3ccccc3Sc3ccc(C(F)(F)F)cc32)CC1 [TRIFLUOPERAZINE] | Not Active | –
39 | TRANSPLATIN | Not Active | Not Active
40 | ZIRCONIUM(IV) CHLORIDE | Not Active | Not Active

Biological target: Protein kinase C alpha type (Homo sapiens, UniProt P17252);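 further: inhibition of PKCalpha kinase activity measured in an enzyme assay with histone as the phosphorylation substrate; in other assays of this panel Not Active means under 50% inhibition at 10 µM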
Format: cell-based
Settings: sf9

Row | Compound | IC50 | Ki
41 | CC(C)NC[C@@H](O)COc1cccc2ccccc12 [DEXPROPRANOLOL] | Not Active | –
42 | CC(C)NC[C@H](O)COc1cccc2ccccc12 [LEVOPROPRANOLOL] | Not Active | –
43 | CC1CCC(NC(=O)N(CCCl)N=O)CC1 (configuration not stated) [SEMUSTINE] | Not Active | –
44 | O=C1C[C@@H]2OCC=C3CN4CC[C@]56c7ccccc7N1[C@H]5[C@H]2[C@H]3C[C@H]46 [STRYCHNINE] | Not Active | –
45 | C[N+](C)(C)CCOC(=O)CCC(=O)OCC[N+](C)(C)C.[Cl-].[Cl-] [SUCCINYLCHOLINE CHLORIDE] | Not Active | –
46 | Nc1ccc(S(=O)(=O)NC(=O)c2ccccc2)cc1 [SULFABENZAMIDE] | Not Active | –
47 | CCCCCCCCNC(C)C(O)c1ccc(SC(C)C)cc1 (configuration not stated) [SULOCTIDIL] | Not Active | –
48 | O=c1[nH]c(=O)n(C2CCCO2)cc1F (configuration not stated) [TEGAFUR] | Not Active | –
49 | CC(=N)S [THIOACETAMIDE] | Not Active | –
50 | Cc1ccc(C(=O)c2ccc(CC(=O)O)n2C)cc1 [TOLMETIN] | Not Active | –
51 | CC(=O)OCC(COC(C)=O)OC(C)=O [TRIACETIN] | Not Active | –
52 | CN1CCN(CCCN2c3ccccc3Sc3ccc(C(F)(F)F)cc32)CC1 [TRIFLUOPERAZINE] | Not Active | –
53 | TRANSPLATIN | Not Active | Not Active
54 | ZIRCONIUM(IV) CHLORIDE | Not Active | Not Active

Biological target: Adenosine receptor A2a (Homo sapiens, UniProt P29274)
Sequence (P29274 whole entry): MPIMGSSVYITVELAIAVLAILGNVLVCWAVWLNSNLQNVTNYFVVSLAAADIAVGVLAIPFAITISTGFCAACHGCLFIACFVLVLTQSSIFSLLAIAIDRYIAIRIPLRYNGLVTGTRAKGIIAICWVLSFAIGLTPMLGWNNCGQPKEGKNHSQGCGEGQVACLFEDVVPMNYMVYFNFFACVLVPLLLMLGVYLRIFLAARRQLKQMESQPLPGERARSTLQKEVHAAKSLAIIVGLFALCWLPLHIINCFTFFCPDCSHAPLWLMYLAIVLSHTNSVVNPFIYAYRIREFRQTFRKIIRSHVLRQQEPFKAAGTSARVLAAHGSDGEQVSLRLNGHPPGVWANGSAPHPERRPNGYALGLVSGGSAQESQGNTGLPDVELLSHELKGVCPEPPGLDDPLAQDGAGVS
Assay: DRUGMATRIX: Adenosine A2A radioligand binding (ligand: […])
Format: cell membranes, HEK293, Membrane
Settings: hek293; Not Active = under 50% inhibition at 10 µM

Row | Compound | IC50 | Ki
55 | CC(C)NC[C@@H](O)COc1cccc2ccccc12 [DEXPROPRANOLOL] | Not Active | –
56 | CC(C)NC[C@H](O)COc1cccc2ccccc12 [LEVOPROPRANOLOL] | Not Active | –
57 | CC1CCC(NC(=O)N(CCCl)N=O)CC1 (configuration not stated) [SEMUSTINE] | Not Active | –
58 | O=C1C[C@@H]2OCC=C3CN4CC[C@]56c7ccccc7N1[C@H]5[C@H]2[C@H]3C[C@H]46 [STRYCHNINE] | Not Active | –
59 | C[N+](C)(C)CCOC(=O)CCC(=O)OCC[N+](C)(C)C.[Cl-].[Cl-] [SUCCINYLCHOLINE CHLORIDE] | Not Active | –
60 | Nc1ccc(S(=O)(=O)NC(=O)c2ccccc2)cc1 [SULFABENZAMIDE] | Not Active | –
61 | CCCCCCCCNC(C)C(O)c1ccc(SC(C)C)cc1 (configuration not stated) [SULOCTIDIL] | Not Active | –
62 | O=c1[nH]c(=O)n(C2CCCO2)cc1F (configuration not stated) [TEGAFUR] | Not Active | –
63 | CC(=N)S [THIOACETAMIDE] | Not Active | –
64 | Cc1ccc(C(=O)c2ccc(CC(=O)O)n2C)cc1 [TOLMETIN] | Not Active | –
65 | CC(=O)OCC(COC(C)=O)OC(C)=O [TRIACETIN] | Not Active | –
66 | CN1CCN(CCCN2c3ccccc3Sc3ccc(C(F)(F)F)cc32)CC1 [TRIFLUOPERAZINE] | Not Active | –
67 | TRANSPLATIN | Not Active | Not Active
68 | ZIRCONIUM(IV) CHLORIDE | Not Active | Not Active

Biological target: T3, Cytochrome P450 1A2 (Homo sapiens, UniProt P05177); further: in other assays of this panel Not Active means under 50% inhibition at 10 µM
T3 sequence (P05177 whole entry): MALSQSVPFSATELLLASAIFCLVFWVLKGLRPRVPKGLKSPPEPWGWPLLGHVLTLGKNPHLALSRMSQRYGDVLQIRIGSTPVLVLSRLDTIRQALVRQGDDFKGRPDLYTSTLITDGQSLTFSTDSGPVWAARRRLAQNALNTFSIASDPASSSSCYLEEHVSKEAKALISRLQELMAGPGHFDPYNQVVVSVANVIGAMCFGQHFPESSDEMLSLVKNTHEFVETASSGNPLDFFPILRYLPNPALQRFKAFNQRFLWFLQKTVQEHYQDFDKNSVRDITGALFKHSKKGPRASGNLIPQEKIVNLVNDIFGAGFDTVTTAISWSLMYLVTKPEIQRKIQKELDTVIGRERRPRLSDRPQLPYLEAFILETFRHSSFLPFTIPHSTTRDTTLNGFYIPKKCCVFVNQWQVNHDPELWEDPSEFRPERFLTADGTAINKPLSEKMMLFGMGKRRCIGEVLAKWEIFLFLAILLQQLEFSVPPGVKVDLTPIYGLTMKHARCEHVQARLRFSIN
Settings: bti-tn-5b1-4

Row | Compound | IC50 | Ki
69 | CC(C)NC[C@@H](O)COc1cccc2ccccc12 [DEXPROPRANOLOL] | Not Active | Not Active
70 | CC(C)NC[C@H](O)COc1cccc2ccccc12 [LEVOPROPRANOLOL] | Not Active | Not Active
71 | CC1CCC(NC(=O)N(CCCl)N=O)CC1 (configuration not stated) [SEMUSTINE] | Not Active | Not Active
72 | O=C1C[C@@H]2OCC=C3CN4CC[C@]56c7ccccc7N1[C@H]5[C@H]2[C@H]3C[C@H]46 [STRYCHNINE] | Not Active | Not Active
73 | C[N+](C)(C)CCOC(=O)CCC(=O)OCC[N+](C)(C)C.[Cl-].[Cl-] [SUCCINYLCHOLINE CHLORIDE] | Not Active | Not Active
74 | Nc1ccc(S(=O)(=O)NC(=O)c2ccccc2)cc1 [SULFABENZAMIDE] | Not Active | Not Active
75 | O=c1[nH]c(=O)n(C2CCCO2)cc1F (configuration not stated) [TEGAFUR] | Not Active | Not Active
76 | CC(=N)S [THIOACETAMIDE] | Not Active | Not Active
77 | Cc1ccc(C(=O)c2ccc(CC(=O)O)n2C)cc1 [TOLMETIN] | Not Active | Not Active
78 | CC(=O)OCC(COC(C)=O)OC(C)=O [TRIACETIN] | Not Active | Not Active
79 | TRANSPLATIN | Not Active | Not Active
80 | ZIRCONIUM(IV) CHLORIDE | Not Active | Not Active
